Measurements from US20050209157A1, “Short bioactive peptides and methods for their use” (priority 2001, published 2005).
Converted amounts (≈) assume the structure as drawn. “And” between values parts separate entries of the source, which are not always exact repeats. Identical values can stand only once. Like-named read-outs stand apart in the source and are kept apart here. Non-standard residues stand in square brackets, D forms with d. Residues, ends and D or L forms follow the SMILES beside them. No end group written: not given here.

Columns and labels:
Candida albicans 105 = assay type: cell-based; settings: Table 13; in µg/mL
[1] = test system: Pseudomonas aeruginosa H187; assay type: cell-based; settings: in µg/mL
[2] = test system: Pseudomonas aeruginosa 100609; assay type: cell-based; settings: Table 9; in µg/mL
[3] = test system: Candida glabrata ATCC15126; test: Antimicrobial assays II, NCCLS broth microdilution MIC; assay type: cell-based; settings: in µg/mL
S. typhimurium 14028S = assay type: cell-based, Salmonella typhimurium; settings: Table 12
E. coli UB1005 = assay type: cell-based, Escherichia coli; settings: Table 12
S. epidermidis C621 = assay type: cell-based, Staphylococcus epidermidis; settings: Table 13; in µg/mL
[4] = test system: Pseudomonas aeruginosa 105663; assay type: cell-based; settings: Table 9; in µg/mL
P. aeruginosa H374 = assay type: cell-based, Pseudomonas aeruginosa; settings: in µg/mL
S. aureus (MRSA) = assay type: cell-based, Staphylococcus aureus; settings: Table 13, strain SAP0017; in µg/mL

Row | Molecule | MIC C. albicans 105 (Candida albicans 105) | MIC P. aeruginosa H187 ([1]; Table 9) | MIC P. aeruginosa H187 ([1]; Table 12) | MIC P. aeruginosa Tb 100609 [2] | MIC C. glabrata ATCC15126 ([3]; Table 13) | MIC S. typhimurium 14028S (S. typhimurium 14028S) | MIC E. coli UB1005 (E. coli UB1005) | MIC S. epidermis C621 (S. epidermidis C621) | MIC P. aeruginosa Tb 105663 [4] | MIC P. aeruginosa H374 (P. aeruginosa H374; Table 9) | MIC P. aeruginosa H374 (P. aeruginosa H374; Table 12) | MIC S. aureus SAP0017 (S. aureus (MRSA)) | MIC P. aeruginosa H187 ([1]; Table 8) | MIC C. glabrata ATCC15126 ([3]; Table 8)
1 | CC(C)C[C@H](NC(=O)[C@H](C)NC(=O)[C@H](CC(C)C)NC(=O)[C@H](CCCCN)NC(=O)[C@H](C)NC(=O)[C@H](CC(C)C)NC(=O)[C@H](CCCCN)NC(=O)[C@H](CCCCN)NC(=O)[C@H](C)NC(=O)[C@H](CC(C)C)NC(=O)[C@H](CCCCN)NC(=O)[C@H](C)NC(=O)[C@H](CC(C)C)NC(=O)[C@H](CCCCN)NC(=O)[C@H](CCCCN)NC(=O)[C@H](C)NC(=O)[C@@H](N)Cc1ccccc1)C(N)=O [P35 (17)] | 32 | 8 | 8 | 4 | 16 | 4 µg/mL (≈ 2.16 µM) | 2 µg/mL (≈ 1.08 µM) | 4 | 4 | 8 | 8 | 8 |  | 
2 | FALALKALKKLKKALKKAL-NH2 [P27 (12)] | 16 and 32 | 8 | 8 | 8 and 16 | 16 and 32 | 16 µg/mL | 8 µg/mL | 4 | 8 and 16 | 8 | 8 | 8 and 16 |  | 
3 | CC(C)C[C@H](NC(=O)[C@H](C)NC(=O)[C@H](CCCCN)NC(=O)[C@H](CCCCN)NC(=O)[C@H](CC(C)C)NC(=O)[C@H](C)NC(=O)[C@H](CCCCN)NC(=O)[C@H](CCCCN)NC(=O)[C@H](CC(C)C)NC(=O)[C@@H](CCCCN)NC(=O)[C@@H](CCCCN)NC(=O)[C@H](CC(C)C)NC(=O)[C@H](C)NC(=O)[C@H](CCCCN)NC(=O)[C@H](CCCCN)NC(=O)[C@H](CC(C)C)NC(=O)[C@H](C)NC(=O)[C@H](CCCCN)NC(=O)[C@H](CC(C)C)NC(=O)[C@H](C)NC(=O)[C@H](CC(C)C)NC(=O)[C@H](C)NC(=O)[C@@H](N)Cc1ccccc1)C(=O)O [P37 (19)] (H-FALALKALKKAL[dK][dK]LKKALKKAL-OH; N-terminus assumed) | 32 | 8 | 8 | 16 | 32 | 8 µg/mL (≈ 3.15 µM) | 4 µg/mL (≈ 1.58 µM) | 4 | 16 | 8 | 8 | 8 |  | 
4 | KYKKALKKLAKLL-NH2 [P146 (108)] | 8 | 4 | 4 | 8 | 16 | 4 µg/mL | 2 µg/mL | 8 | 8 | 2 | 2 | 16 |  | 
5 | GIGKFLKKAKKFGKAFVKILKK-NH2 [P42 (24)] | 32 | 8 | 8 | 8 | 64 | 8 µg/mL | 4 µg/mL | 2 | 8 | 4 | 4 | 16 |  | 
6 | FAKLLAKALKKLL-NH2 [P55 (35)] | 16 | 8 | 8 | 8 | 8 | 4 µg/mL | 4 µg/mL | 2 | 16 | 8 | 8 | 4 |  | 
7 | FAKKLAKKLAKLAL-NH2 [P45 (27)] | 16 | 16 | 16 | 32 | 16 | 32 µg/mL | 4 µg/mL | 16 | 32 | 8 | 8 | 32 |  | 
8 | FAKKLAKKLL-NH2 [P59 (39)] | 32 | 8 | 8 | 8 | 16 | 8 µg/mL | 8 µg/mL | 8 | 8 | 8 | 8 | 8 |  | 
9 | FALKALKKLKKALKKAL-NH2 [P153 (115)] | 16 | 8 | 8 | 8 | 16 | 8 µg/mL | 8 µg/mL | 4 | 8 | 4 | 4 | 16 |  | 
10 | FAVGLRAIKRALKKLRRGVRKVAKDL-NH2 [P157 (119)] |  | 8 |  | 16 |  |  |  |  | 16 | 8 |  |  | 8 | 64
11 | FAKKLAKLAKKALAL-NH2 [P39 (21)] |  | 32 |  | 32 |  |  |  |  | 32 | 16 |  |  | 32 | 16
12 | VALALKALKKLLKKLKKLAKKAL-NH2 [P510 (161)] | 32 | 8 | 8 | 16 | 64 | 16 µg/mL | 8 µg/mL | 4 | 16 | 8 | 8 | 8 |  | 
13 | CC(C)C[C@H](NC(=O)[C@H](C)NC(=O)[C@H](CC(C)C)NC(=O)[C@H](C)NC(=O)[C@H](CC(C)C)NC(=O)[C@H](CCCCN)NC(=O)[C@H](C)NC(=O)[C@H](CC(C)C)NC(=O)[C@H](CCCCN)NC(=O)[C@H](CCCCN)NC(=O)[C@H](C)NC(=O)[C@H](CC(C)C)NC(=O)[C@H](CCCCN)NC(=O)[C@H](C)NC(=O)[C@H](CC(C)C)NC(=O)[C@H](CCCCN)NC(=O)[C@H](CCCCN)NC(=O)[C@H](C)NC(=O)[C@@H](N)C(C)C)C(N)=O [P504 (155)] | 64 | 8 | 8 | 8 | 64 | 4 µg/mL (≈ 2.01 µM) | 4 µg/mL (≈ 2.01 µM) | 4 | 16 | 8 | 8 | 4 |  | 
14 | FAKLLALALKKAL-NH2 [P97 (165)] | 16 | 16 | 16 | 16 | 16 | 16 µg/mL | 8 µg/mL | 4 | 16 | 8 | 8 | 8 |  | 
15 | FALALKALKKLAKKLKKLAKKAL-NH2 [P25 (10)] | 32 | 8 | 8 | 8 | 32 | 8 µg/mL | 8 µg/mL | 4 | 8 | 8 | 8 | 16 |  | 
16 | FAKLLAKLAKKLL-NH2 [P43 (25)] | 8 | 8 | 8 | 8 | 16 | 8 µg/mL | 8 µg/mL | 2 | 8 | 8 | 8 | 4 |  | 
17 | FAKKLAKLALKLAKL-NH2 [P44 (26)] | 8 | 8 | 8 | 8 | 16 | 4 µg/mL | 1 µg/mL | 4 | 16 | 8 | 8 | 8 |  | 
18 | FAKKLKKLAKLAKKL-NH2 [P46 (28)] |  | 16 |  | 16 |  |  |  |  | 32 | 4 |  |  | 8 and 16 | 32
